Test results taken from paper PMC3994062, “Inhibition of Paracoccidioides lutzii Pb01 Isocitrate Lyase by the Natural Compound Argentilactone and Its Semi-Synthetic Derivatives” (PLoS ONE, 2014).
≈ marks a conversion by molar mass, not a printed value. Like-named read-outs stand apart in the source and are kept apart here.

What was measured:
[1] = biological target: PbICLr (Paracoccidioides lutzii, UniProt C1H8F5); experiment: Enzymatic activity of recombinant isocitrate lyase (PbICLr); format: biochemical; conditions: for Specific activity PbICLr: control 2.55±0.02
Description: Recombinant PbICL protein was obtained as described by Cruz. Briefly, Pbicl cDNA was inserted into the pET-32a (+) expression vector (Novagen, Inc,). The resulting plasmid was transformed into E. coli BL21 C43 (DE3) cells, and expression was induced at an A600 of 0.6 by the addition of 1 mm (final concentration) isopropyl thio-β-D-galactoside (IPTG) (Sigma-Aldrich). After induction, the cells were incubated for another 2 h at 36°C with shaking at 200 rpm. The cells were harvested by centrifugation at 10,000×g for 5 min at 4°C and resuspended in 1 × NaCl/Pi buffer. After incubation for 30 min with 100 µg/mL lysozyme, the cells were lysed by extensive sonication. The sample was centrifuged at 4°C and 8,000×g for 15 min, and the supernatant, which contained the soluble protein fraction, was collected. His-tagged ICL was purified using the Ni-NTA Spin Kit (Qiagen), and the tags were subsequently removed by the addition of EKMax™ enterokinase (Invitrogen).
(§1) ICL activity was determined according to Cruz et al.. Reactions were performed in 1 mL assay volume containing 2 mM threo-D,L-isocitrate (effective concentration of threo-D-isocitrate 1 mM), 2 mM MgCl2, 10 mM phenylhydrazine HCl, 2 mM dithiothreitol, and 50 mM Tris HCl buffer (pH 7.0). The product glyoxylate-phenylhydrazone was followed at 324 nm using an extinction coefficient of 16.8 mM^−1.cm^−1. One unit of enzyme activity was defined as the formation of 1 µmol of glyoxylate-phenylhydrazone per minute using threo-D,L-isocitrate as the substrate. The specific activities were given as U.mg^−1 protein.
(§2) The compound concentrations were 10 µM, 20 µM, 30 µM, and 40 µM for recombinant PbICL and 30 µM, 40 µM, 50 µM, 60 µM, 70 µM, 80 µM and 90 µM for native PbICL. 3-nitropropinate (50.7 µM) was used as positive control. To the assays of specific activity of PbICL from mycelium, transition, and yeast, the cells were cultured for 10 days on 23°C and 36°C, and were used 18 µg/mL of argentilactone.

[2] = test system: P. lutzii Pb01 differentiation from mycelium to yeast; experiment: Transition from mycelium to yeast (dimorphism); format: cell-based, Paracoccidioides lutzii; conditions: glucose or acetate; 10 days at 36°C
Description: The differentiation from mycelium to yeast was performed in Mc Veigh and Morton (MMcM) liquid minimal medium containing glucose (0.11 M) or acetate (0.28 M) as the carbon source. The cultivation temperature was changed from 23°C to 36°C to allow the mycelium to yeast transition. The cells were previously grown in liquid medium for 18 h before changing the incubation temperature, which was maintained for 10 days. The appearance of yeast cells was monitored using a Neubauer chamber.

[3] = test system: P. lutzii Pb01 yeast cells; experiment: Inhibition and sensitivity assay, P. lutzii Pb01 yeast cells growth (broth macro dilution / spot on MMcM agar); format: cell-based, Paracoccidioides lutzii; conditions: for effect on P. lutzii Pb01 yeast cells growth: glucose or acetate as carbon source, 9 to 72 µg/mL; for MIC: read-out: minimal inhibitory concentration
Description: Inhibition assays were performed by broth macro dilution method according to NCCLS M27-A2 guidelines with modifications. For the inhibition assays, yeast cells in their exponential growth phase were kept on solid MMcM for seven days at 36°C and inoculated in liquid MMcM medium. Sterile stock solution of the argentilactone, reduced argentilactone, epoxy argentilactone and diol argentilactone were freshly prepared in water and dimethyl sulfoxide (DMSO). Serial dilutions from stock solutions were prepared with sterile MMcM medium as the diluent, to yield final compound concentrations ranging from 9 to 72 µg/mL. Drug-free controls were included. Inocula concentrations were determined spectrophotometrically at 520 nm. The mixture was vortexed to disperse the aggregated cells. P. lutzii Pb01 was grown at 36°C, 200 rpm shaking for 10 days. For the sensitivity assay, 7-day-old P. lutzii Pb01 yeast cells were grown in liquid MMcM overnight at 36°C. Samples containing 10^5, 10^4, and 10^3 cells were spotted onto MMcM agar medium supplemented with argentilactone, reduced argentilactone, epoxy argentilactone, or diol argentilactone at concentrations of 9 µg/mL, 18 µg/mL, 36 µg/mL, or 72 µg/mL. […] The plates were incubated for 6 days at 36°C before being photographed.

[4] = biological target: PbICLc (Paracoccidioides lutzii, UniProt C1H8F5); experiment: Enzymatic activity of native PbICL in crude protein extract of yeast cells (PbICLc); format: biochemical; conditions: for inhibition of native PbICL activity: crude extract of yeast cells; for Specific activity PbICLc Acetate: crude extract of yeast cells grown on acetate, control 0.080±0.004; for Specific activity PbICLc Acetate / Specific activity PbICLc Glucose / IC50 PbICLc Acetate / IC50 PbICLc Glucose / IC50: N.I. = No inhibition found; for Specific activity PbICLc Glucose: crude extract of yeast cells grown on glucose, control 0.010±0.002; for IC50 PbICLc Acetate / IC50 PbICLc Glucose / IC50: crude extract
Description: P. lutzii Pb01 yeast cells grown for 24 h in liquid minimal MMcM medium containing glucose or acetate as the carbon source were centrifuged for 5 min at 2.500×g. The proteins were extracted as previously described. The cells were washed with sterilized water and frozen in liquid nitrogen. The material was ground to a fine powder; resuspended in 500 µL of 50 mM potassium phosphate buffer (pH 7.0) supplemented with 1 mM dithiothreitol (DTT) and vigorously mixed with glass beads for 20 min at 4°C. The cell debris was removed by centrifugation for 15 min at 4°C and 5,000×g, and the supernatant was centrifuged for 15 min at 4°C and 12,000×g. The cell-free extract was used for the ICL activity assays or stored at −20°C for further analyses. Quantification of the protein content was performed according to Bradford.
as §1, §2

[5] = test system: P. lutzii Pb01 yeast cells; experiment: Viability assay of P. lutzii Pb01 yeast cells (Neubauer chamber); format: cell-based, Paracoccidioides lutzii; conditions: 18 µg/mL, after 6 h of incubation
Description: P. lutzii Pb01 yeast cells were sub-cultured every 7 days in solid Fava-Netto’s medium at 36°C. For viability experiments, yeast cells were kept in liquid McVeigh Morton (MMcM) chemically defined medium for 6 h at 36°C and viability of the cells determined by counting viable cells in a Neubauer chamber. All experiments were performed in triplicate.

[6] = test system: PbICL; experiment: PbICL activity from phases of P. lutzii Pb01 cultured with argentilactone; format: biochemical, Paracoccidioides lutzii; conditions: for PbICL specific activity: treated with 18 µg/mL; for inhibition of PbICL: 18 µg/mL, over the phases
Description: as §1, §2

[7] = test system: MRC5 cells; experiment: Toxicity to MRC5 cells; format: cell-based; conditions: 18 µg/mL; data not shown
[8] = test system: dermatophytes; set-up: method as in doi:10.1590/S0103-50532004000500023; conditions: cited from earlier work
[9] = recombinant enzyme, N.I. = No inhibition found
[10] = read-out: IC50 PbICLc Acetate, acetate
[11] = read-out: IC50 PbICLc Glucose, glucose

Sequence of PbICLr (C1H8F5 entry or part of it): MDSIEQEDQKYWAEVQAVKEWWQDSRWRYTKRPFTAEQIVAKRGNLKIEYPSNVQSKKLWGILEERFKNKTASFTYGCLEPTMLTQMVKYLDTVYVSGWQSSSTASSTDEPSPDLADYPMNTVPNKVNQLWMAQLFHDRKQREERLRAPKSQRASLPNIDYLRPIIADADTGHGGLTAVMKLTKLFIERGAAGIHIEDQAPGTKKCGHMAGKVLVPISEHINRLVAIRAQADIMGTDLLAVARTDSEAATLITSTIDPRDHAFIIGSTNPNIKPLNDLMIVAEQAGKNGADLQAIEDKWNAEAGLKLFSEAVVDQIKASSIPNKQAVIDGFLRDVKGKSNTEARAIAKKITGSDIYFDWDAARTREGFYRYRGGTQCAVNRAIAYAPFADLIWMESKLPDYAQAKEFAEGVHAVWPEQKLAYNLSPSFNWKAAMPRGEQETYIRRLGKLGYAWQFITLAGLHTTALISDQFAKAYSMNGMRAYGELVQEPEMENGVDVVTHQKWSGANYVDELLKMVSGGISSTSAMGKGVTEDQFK
Sequence of PbICLc (C1H8F5 entry or part of it): as above

Compound	effect against PbICLr ([1]; recombinant enzyme)	IC50 PbICLr [1, 9]	Specific activity PbICLr [1, 9]	inhibition of the dimorphism mycelium to yeast [2]	effect on P. lutzii Pb01 yeast cells growth [3]	inhibition of native PbICL activity [4]	Specific activity PbICLc Acetate [4]	Specific activity PbICLc Glucose [4]	IC50 PbICLc Acetate ([4]; acetate)	IC50 PbICLc Glucose ([4]; glucose)	IC50 [1] [µM]	MIC ([3]; acetate as carbon source) [mg/L]	MIC ([3]; glucose as carbon source) [mg/L]	IC50 [4, 10] [µM]	IC50 [4, 11] [µM]	also measured
CCCCC[C@@H](O)[C@H](O)[C@H]1CC=CC(=O)O1 [Diol argentilactone, 2H-Pyran-2-one, 6-(1,2-dihydroxyheptyl)-5,6-dihydro-, [6R-(1S, 2R)]]	no effect	N.I. ^**	N.I. ^**	did not interfere	very small effect	No inhibition	N.I. ^**	N.I. ^**	N.I. ^**	N.I. ^**	–	–	–	–	–	–
CCCCC/C=C\[C@H]1CC=CC(=O)O1 [Argentilactone, 2H-Pyran-2-one, 6-(1-heptenyl)-5,6-dihydro-, [R-(Z)]]	–	–	0.86±0.01 U/mg	dose-dependent inhibition	dose-dependent inhibition	inhibited	0.040±0.001 U/mg	–	–	–	28.8 ± 0.01	9 (≈ 46.3 µM)	18 (≈ 92.7 µM)	50 ± 0.03	80 ± 0.02	decrease of viability [5]: approximately 15%; PbICL specific activity ([6]; Mycelium to Yeast, Acetate): 0.055±0.003 U; PbICL specific activity ([6]; Mycelium to Yeast, Glucose): 0.055±0.001 U; PbICL specific activity ([6]; Mycelium, Acetate): 0.055±0.005 U; PbICL specific activity ([6]; Mycelium, Glucose): T 0.045±0.001 U; PbICL specific activity ([6]; Yeast, Acetate): 0.120±0.003 U; PbICL specific activity ([6]; Yeast, Glucose): 0.085±0.001 U; inhibition of PbICL ([6]; acetate): ~45%; inhibition of PbICL ([6]; glucose): ~30%; toxicity to MRC5 cells [7]: not toxic; minimal inhibitory concentration [8]: 31 mg/L (≈ 160 µM)
CCCCCC1OC1C1CC=CC(=O)O1 [Epoxi argentilactone, 2H-Pyran-2-one, 5,6-dihydro-6-[(2S, 3S)-3-pentyl-2-oxiranyl] -, (6R)]	no effect	N.I. ^**	N.I. ^**	did not interfere	very small effect	No inhibition	N.I. ^**	N.I. ^**	N.I. ^**	N.I. ^**	–	–	–	–	–	–
O=C(O)CC[N+](=O)[O-] [3-Nitropropionate, reference compound]	–	–	0.81±0.01 U/mg	–	–	–	0.036±0.002 U/mg	0.008±0.001 U/mg	–	–	–	–	–	–	–	IC50 ([1]; recombinant enzyme, N.I. = No inhibition found, read-out: IC50 PbICLr): 25.7 ± 0.01 µM; IC50 ([4]; acetate, read-out: IC50 PbICLc Acetate): 45.4 ± 0.01 µM; IC50 ([4]; glucose, read-out: IC50 PbICLc Glucose): 76 ± 0.01 µM
CCCCCCCC1CC=CC(=O)O1 (stereo in doubt) [Reduced argentilactone, 2H-Pyran-2-one, 6-heptyl-5,6-dihydro-, (6R)]	–	–	0.93±0.01 U/mg	the effect was reduced	dose-dependent inhibition	inhibited	0.067±0.004 U/mg	0.009±0.003 U/mg	–	–	30.2 ± 0.04	9 (≈ 45.9 µM)	18 (≈ 91.7 µM)	60 ± 0.02	85 ± 0.01	–
